From publication PMC8067632, “Assessment and Development of the Antifungal Agent Caspofungin for Aerosolized Pulmonary Delivery” (Pharmaceutics, 2021)

Columns and labels:
Format in all cases: cell-based
[1] = test system: Candida albicans ATCC44858; test: microbe, parasite or virus in culture; details: Candida albicans, ATCC44858; CLSI broth microdilution, visual, duplicate; read-out: MIC
Protocol: (§1) Antifungal potency of the test article(s) was measured using the in vitro broth microdilution assay under test conditions described by the Clinical and Laboratory Standards Institute. Minimum Inhibitory Concentration (MIC) is defined as the lowest concentration of an agent that causes a specified reduction in visible growth of the microorganism. Minimum Effective Concentration (MEC) is defined as the lowest concentration of an agent that leads to the growth of small, rounded, compact hyphal forms, as compared to the hyphal growth typically seen in the growth control well. MIC values were determined for 9 Candida spp., and MEC values were determined for filamentous fungus species (Aspergillus fumigatus and Trichophyton rubrum). Details of the test article preparations and methodologies are described in Supplementary Material S1.
(§2) Following incubation, the test plates were visually examined and wells were scored for growth or complete growth inhibition to define the MIC values. Microscopy examination was used to determine the MEC values. Each test substance was evaluated in duplicate and the results are the duplicate test values. Vehicle-control and an active reference agent were used as blank and positive controls, respectively. […]
(§3) S1. In Vitro Testing, Test Article Preparations
(§4) The 5 mg/mL stock solution was prepared as the following. The refrigerated vial was equilibrated to room temperature. Test vial was reconstituted aseptically with 10.5 mL 0.9% NaCl. The powder was dissolved completely, mixing until a clear solution was ob-tained. The final concentration was 5.0 mg/mL of caspofungin freebase. The reconstituted solution was stable for 1 hr at room temperature. The 5 mg/mL stock solution was then […]
(§5) The refrigerated vial was equilibrated to room temperature. The powder was dis-solved completely, mixing until a clear solution was obtained. Test vial was reconstituted aseptically with 1.8 mL 0.9% NaCl. The white to off-white powder was dissolved com-pletely, mixing gently until a clear solution was obtained. The final concentration was 5.0 mg/mL of caspofungin freebase. The reconstituted solution was used within 1 hr at room temperature. The 5 mg/mL stock solution was then diluted with 0.9% NaCl to prepare the […]
(§6) 1.3. Caspofungin Diacetate
(§7) The 5 mg/mL API stock solution was prepared as the following. The refrigerated vial was equilibrated to room temperature. Test vial was filled aseptically with 1.8 mL 0.9%
(§8) NaCl. The powder was dissolved completely, mixing until a clear solution was obtained.
(§9) The final concentration was 5.0 mg/mL of caspofungin freebase. The reconstituted solu-tion was used within 1 hr at room temperature. The 5 mg/mL stock solution was then […]
(§10) g compound, corresponding to 1.2 mg active compound with a correction factor of 2.40 was added 0.375 mL of water for injection to generate the 3.2 mg/mL working stock solution for testing. The 3.2 mg/mL working stock solution was 2-fold diluted seri-ally in 0.9% NaCl to prepare a total of eleven 50-fold stock solutions, concentrations rang-ing from 3.2 to 0.003 mg/mL. A 4 μL aliquot of each dilution was added to 196 μL of broth medium seeded with the organism suspension in wells of a 96 well plate (fungal cell count: 1 x 10^3 to 1 x 10^4 colony forming units per mL). The final volume was 200 μL in each […]

[2] = test system: Candida glabrata ATCC 36583; test: microbe, parasite or virus in culture; details: Nakaseomyces glabratus, ATCC36583; CLSI broth microdilution, duplicate; read-out: MIC
Protocol: as §1, §2, §3, §4, §5, §6, §7, §8, §9, §10

[3] = test system: Candida albicans Azole-R (20183.073); test: microbe, parasite or virus in culture; details: Candida albicans; CLSI broth microdilution, azole-resistant strain, duplicate; read-out: MIC
Protocol: as §1, §2, §3, §4, §5, §6, §7, §8, §9, §10

[4] = test system: Candida albicans ATCC90028 + 50%human serum; test: microbe, parasite or virus in culture; details: Candida albicans, ATCC90028, CLSI broth microdilution, duplicate, read-out: MIC
Protocol: as §1, §2, §3, §4, §5, §6, §7, §8, §9, §10

[5] = test system: Candida tropicalis ATCC 200956; test: microbe, parasite or virus in culture; details: Candida tropicalis, ATCC200956; CLSI broth microdilution, duplicate; read-out: MIC
Protocol: as §1, §2, §3, §4, §5, §6, §7, §8, §9, §10

Candida krusei ATCC 6258 = test: microbe, parasite or virus in culture; details: Pichia kudriavzevii, ATCC6258; CLSI broth microdilution, duplicate; read-out: MIC
Protocol: as §1, §2, §3, §4, §5, §6, §7, §8, §9, §10

[6] = test system: Candida albicans Azole-R (20186.025); test: microbe, parasite or virus in culture; details: Candida albicans
Protocol: as §1, §2, §3, §4, §5, §6, §7, §8, §9, §10

[7] = test system: Candida parapsilosis ATCC 22019; test: microbe, parasite or virus in culture; details: Lodderomyces parapsilosis, ATCC22019; CLSI broth microdilution, duplicate; read-out: MIC
Protocol: as §1, §2, §3, §4, §5, §6, §7, §8, §9, §10

[8] = test system: Candida albicans ATCC90028; test: microbe, parasite or virus in culture; details: Candida albicans, ATCC90028; CLSI broth microdilution, visual, duplicate; read-out: MIC
Protocol: as §1, §2, §3, §4, §5, §6, §7, §8, §9, §10

[9] = test system: Trichophyton rubrum ATCC 10218; test: Broth microdilution MEC; details: CLSI broth microdilution, microscopy, duplicate
Protocol: as §1, §2, §3, §4, §5, §6, §7, §8, §9, §10

[10] = test system: Aspergillus fumigatus ATCC 13073; test: Broth microdilution MEC; details: CLSI broth microdilution, microscopy, duplicate
Protocol: as §1, §2, §3, §4, §5, §6, §7, §8, §9, §10

[11] = test system: Aspergillus fumigatus ATCC204305; test: Broth microdilution MEC; details: CLSI broth microdilution, microscopy, duplicate
Protocol: as §1, §2, §3, §4, §5, §6, §7, §8, §9, §10

C[C@@H]1[C@H](O)[C@@H](C)/C=C/C=C/C=C/C=C/C=C/C=C/C=C/[C@H](O[C@@H]2O[C@H](C)[C@@H](O)[C@H](N)[C@@H]2O)C[C@@H]2O[C@](O)(C[C@@H](O)C[C@@H](O)[C@H](O)CC[C@@H](O)C[C@@H](O)CC(=O)O[C@H]1C)C[C@H](O)[C@H]2C(=O)O [Amphotericin B]
0.5 µg/mL: MEC [11]
0.125 µg/mL: MIC [1] | MIC [2] | MIC [3] | MIC [8] | MEC [9]
1 µg/mL: MIC [5]
0.25 µg/mL: MIC [4] | MIC (Candida krusei ATCC 6258) | MIC [6] | MIC [7] | MEC [10]
